The source of these data is patent US20240174639A1, “PYRIDINE DERIVATIVES USEFUL AS HCN2 MODULATORS” (King's College London, priority 2021, published 2024).

Structures can show the parent of a compound that is named as a salt. Bounds are passed on as bounds.

In data set [1] the target is T1, HCN4 (Homo sapiens, UniProt Q9Y3Q4).
T1 sequence (Q9Y3Q4 1-1203): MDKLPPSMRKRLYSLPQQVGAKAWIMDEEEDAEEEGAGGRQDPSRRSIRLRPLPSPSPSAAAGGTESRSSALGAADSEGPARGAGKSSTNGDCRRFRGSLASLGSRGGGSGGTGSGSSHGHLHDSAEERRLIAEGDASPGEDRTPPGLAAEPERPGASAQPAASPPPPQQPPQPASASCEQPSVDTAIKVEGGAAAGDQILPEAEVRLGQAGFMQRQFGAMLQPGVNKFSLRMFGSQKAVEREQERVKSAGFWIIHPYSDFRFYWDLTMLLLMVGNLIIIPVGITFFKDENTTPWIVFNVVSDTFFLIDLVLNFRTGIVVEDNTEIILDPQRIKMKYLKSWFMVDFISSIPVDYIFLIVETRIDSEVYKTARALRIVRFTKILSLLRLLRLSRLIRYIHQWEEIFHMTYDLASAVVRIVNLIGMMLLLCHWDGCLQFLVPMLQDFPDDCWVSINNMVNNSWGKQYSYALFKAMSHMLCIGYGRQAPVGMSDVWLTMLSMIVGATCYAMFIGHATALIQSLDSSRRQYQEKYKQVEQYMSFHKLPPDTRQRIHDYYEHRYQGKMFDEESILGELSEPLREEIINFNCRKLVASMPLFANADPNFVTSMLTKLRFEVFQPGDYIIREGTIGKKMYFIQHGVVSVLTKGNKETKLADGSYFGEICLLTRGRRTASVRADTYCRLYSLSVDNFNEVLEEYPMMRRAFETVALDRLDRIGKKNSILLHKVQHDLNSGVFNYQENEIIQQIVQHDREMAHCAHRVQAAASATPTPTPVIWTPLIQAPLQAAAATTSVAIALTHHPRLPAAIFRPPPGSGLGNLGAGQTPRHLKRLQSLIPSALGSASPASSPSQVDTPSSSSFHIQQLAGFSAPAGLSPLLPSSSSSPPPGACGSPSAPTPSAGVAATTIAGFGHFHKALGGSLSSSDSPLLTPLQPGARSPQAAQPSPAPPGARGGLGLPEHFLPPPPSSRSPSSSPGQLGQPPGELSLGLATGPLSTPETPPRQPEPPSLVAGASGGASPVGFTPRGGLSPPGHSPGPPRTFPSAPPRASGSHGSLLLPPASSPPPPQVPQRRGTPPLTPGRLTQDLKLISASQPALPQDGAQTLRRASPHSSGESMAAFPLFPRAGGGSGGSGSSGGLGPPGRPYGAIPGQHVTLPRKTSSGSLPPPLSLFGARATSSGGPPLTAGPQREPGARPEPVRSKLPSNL
The data set can be described thus: HCN4 assay using the Sophion Qube (Example 50B). In kind it is cell-based. The following applies: Sophion Qube protocol (SQ). As for the experimental part:
Solutions for recording HCN currents were: [table] For HCN4, the cells were held at −30 mV and then stepped to −130 mV for 4 seconds before stepping back to −30 mV, this represents 1 experimental sweep. This voltage protocol was applied every 20 seconds for the duration of the experiment. Both the vehicle (0.3% DMSO) and full block (3 mM CsCl) addition periods were applied for 10 experimental sweeps each. The compound addition period was applied for 30 sweeps. The currents evoked by the step to −110 mV (HCN1 and HCN2) or −130 mV (HCN4) were measured for the analysis of the percentage inhibition by test compounds. The current amplitudes were measured by subtracting metric A from metric B (see FIG. 2) with inhibition calculated by normalising to the vehicle addition (0.3% DMSO) and full inhibition by 3 mM CsCl in the same well. […] In total, compound was applied to the well for 600 seconds.

In data set [2] the target is T2, HCN2 (Homo sapiens, UniProt Q9UL51).
T2 sequence (Q9UL51 1-889): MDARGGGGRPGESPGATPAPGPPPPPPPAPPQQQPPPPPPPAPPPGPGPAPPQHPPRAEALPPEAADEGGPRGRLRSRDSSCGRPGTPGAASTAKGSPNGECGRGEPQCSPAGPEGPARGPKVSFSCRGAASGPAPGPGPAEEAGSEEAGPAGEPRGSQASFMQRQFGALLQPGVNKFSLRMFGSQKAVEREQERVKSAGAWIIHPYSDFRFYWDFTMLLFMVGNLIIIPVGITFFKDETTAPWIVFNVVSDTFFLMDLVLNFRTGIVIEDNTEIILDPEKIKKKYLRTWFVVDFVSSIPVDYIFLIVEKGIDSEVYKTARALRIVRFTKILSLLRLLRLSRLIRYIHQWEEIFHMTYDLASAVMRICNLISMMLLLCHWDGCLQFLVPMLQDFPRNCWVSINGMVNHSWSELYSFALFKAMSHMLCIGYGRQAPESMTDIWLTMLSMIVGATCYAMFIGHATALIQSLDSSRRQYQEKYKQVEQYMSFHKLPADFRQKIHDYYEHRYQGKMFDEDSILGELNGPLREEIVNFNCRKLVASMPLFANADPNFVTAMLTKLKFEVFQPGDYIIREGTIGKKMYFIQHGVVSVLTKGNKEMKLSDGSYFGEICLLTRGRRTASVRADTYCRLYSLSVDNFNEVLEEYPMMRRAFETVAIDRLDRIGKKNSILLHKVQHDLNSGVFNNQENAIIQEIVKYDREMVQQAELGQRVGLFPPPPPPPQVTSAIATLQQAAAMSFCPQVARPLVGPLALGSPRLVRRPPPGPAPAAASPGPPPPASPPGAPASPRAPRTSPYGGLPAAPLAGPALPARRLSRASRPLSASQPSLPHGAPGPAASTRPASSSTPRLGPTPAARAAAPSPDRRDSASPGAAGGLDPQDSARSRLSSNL
The data set can be described thus: HCN2 assay using the Sophion Qube (Example 50B). In kind it is cell-based. The conditions noted are these: Sophion Qube protocol (SQ). As to the method: Solutions for recording HCN currents were:
For HCN1 and HCN2 the cells were held at −30 mV and then stepped to −110 mV for 2 seconds before stepping back to −30 mV, this represents 1 experimental sweep. This voltage protocol was applied every 20 seconds for the duration of the experiment. Both the vehicle (0.3% DMSO) and full block (3 mM CsCl) addition periods were applied for 10 experimental sweeps each. The compound addition period was applied for 30 sweeps.
The currents evoked by the step to −110 mV (HCN1 and HCN2) or −130 mV (HCN4) were measured for the analysis of the percentage inhibition by test compounds. The current amplitudes were measured by subtracting metric A from metric B (see FIG. 2) with inhibition calculated by normalising to the vehicle addition (0.3% DMSO) and full inhibition by 3 mM CsCl in the same well.
In total, compound was applied to the well for 600 seconds.

Another data set has as its system Black6 strain mice. The data set can be described thus: Bradycardia testing, heart rate by MouseOx pulse oximeter (Example 58). In kind it is in vivo. The following applies: 2 mg/kg i.p., awake Black6 mice. As to the method: Test compounds were administered i.p. to awake, behaving, Black6 strain mice together with a vehicle only control arm. Heart rate in the mice were measured with MouseOx pulse oximeter.
The compound of Example 2 was administered to awake, behaving, Black6 strain mice at doses ranging from 0.05 mg/kg to 2 mg/kg. The effect of the compound of Example 2 on heart beat is shown in FIG. 11 compared to ivabradine administered at a dose of 5 mg/kg i.p, and a vehicle control.

Data set [3] deals with T2, HCN2. Briefly: HCN2 assay using PatchXpress 7000A (Example 50A). In kind it is cell-based. The source says: (§1) Solutions for recording HON currents were:
For HCN1 and HCN2, the pulse protocol involved stepping from a holding potential of −30 mV to −110 mV (see FIG. 1A) for 2 seconds to evoke the current. The membrane voltage was then stepped back to −30 mV for a further 8 seconds. This sequence was evoked repeatedly every 10 seconds throughout the experiment, starting prior to drug (Control A) and during cumulative additions of 5 increasing compound concentrations, then finally a 100% inhibiting concentration of cesium chloride (CsCl, 3 mM).
(§2) The peak inward current measured at the end of the pulse to −110 mV (HCN1 and HCN2) or −130 mV (HCN4) was measured and any leak current subtracted to calculate the HCN current. The HCN current amplitude was measured after each control or compound addition and normalized to the control amplitude (Control A).
(§3) All experiments were performed at room temperature (approximately 22° C.).
(§4) Each test compound concentration was applied to the cell for seven (7) minutes, at which point the next cumulative concentration was applied. 3 mM CsCl was applied to each cell for 2 minutes at the end of each experiment (Control B) to determine 100% inhibition level of the HCN current.

For data set [4], the target named is T1, HCN4. The data set can be described thus: HCN4 assay using PatchXpress 7000A (Example 50A). In kind it is cell-based. The conditions noted are these: PatchXpress protocol (PX). As to the method: as §1
For HCN4, the pulse protocol involved stepping from a holding potential of −30 mV to −130 mV (see FIG. 1B) for 4 seconds to evoke the current.
as §2, §3, §4

In another data set the test system is WT Black6 strain mice. The data set can be described thus: Mouse neuropathic pain model (partial sciatic nerve ligation), von Frey filament (Example 57). In kind it is in vivo. The conditions noted are these: day 5 after PSNL. As for the experimental part:
The compounds of Example 2 and Example 4 were tested in a mouse neuropathic pain model using WT Black6 strain mice. The model used was analogous to the model described in Seltzer Z, Dubner R, & Shir Y (1990), A novel behavioural model of neuropathic pain disorders produced in rats by partial sciatic nerve injury, Pain 43: 205-218). […] Sci Transl Med 9: eaam6072.
The test compounds were administered i.p. to the mice on day 5 following partial sciatic nerve ligation surgery, average data from 3-4 mice. The mechanical pain threshold was measured by manual von Frey filament applied to hind paw on the operated side, using the “up-down” method. The test compounds were compared to ivabradine at 5 mg/kg i.p. and i.p. injection of vehicle.

As a reminder, the IC50 is the concentration needed to halve the response being measured. Low readings indicate greater potency in that assay, high ones weaker potency in that assay.

On to `Cc1ccc2c(cnn2-c2cccnc2[C@@H](N)Cc2nc(C#N)ccc2F)c1` [Example 39, (S)-6-{2-Amino-2-[3-(5-methyl-1H-indazol-1-yl)pyridine-2-yl]-ethyl}-5-fluoropyr-idine-2-carbonitrile hydrochloride], for which the IC50 on HCN4 [1] was found to be 3.7 µM; on HCN2 [2], 0.31 µM.

For `N[C@@H](Cc1ccccn1)c1ncccc1-n1ncc2ccccc21` [Example 4, (S)-1-[3-(1H-indazole-1-yl)pyridine-2-yl]-2-(pyridine-2-yl)ethan-1-amine hydrochloride], the “bradycardia (heart rate)” value in the data set on Black6 strain mice is recorded as “minimal bradycardia”. Moreover, the figures for the IC50 against HCN2 [3] (PatchXpress protocol (PX)) and against HCN4 [4] were 1.6 µM and more than 30 µM, respectively. Besides, the “selective for HCN2 over HCN4” value at HCN2 [3] (PatchXpress protocol (PX) assay) is “more than 19 times”. Further, the “mechanical analgesia (von Frey pain threshold)” value with WT Black6 strain mice (2 mg/kg i.p.) and in the data set on WT Black6 strain mice (10 mg/kg i.p.) was “maximal analgesia” throughout.

Turning to `Cc1cccnc1C[C@H](N)c1ncccc1-n1ncc2cc(Br)ccc21` [Example 30, (S)-1-[3-(5-Bromo-1H-indazole-1-yl)pyridine-2-yl]-2-(3-methylpyr-idine-2-yl)ethan-1-amine hydrochloride], the results for the IC50 at HCN4 [1] and against HCN2 [2] were 22.5 µM and 0.9 µM, respectively.

For the molecule `Cc1ccc(C#N)nc1C[C@H](N)c1ncccc1-n1ncc2cc(Cl)ccc21` [Example 35, (S)-6-{2-Amino-2-[3-(5-chloro-1H-indazol-1-yl)pyridine-2-yl]-ethyl}-5-methylpyr-idine-2-carbonitrile], the values for the IC50 against HCN4 [1] and at HCN2 [2] were 4.3 µM and 0.46 µM, respectively.

Take `CS(=O)(=O)c1ccc(F)c(C[C@H](N)c2ncccc2-n2ncc3cc(Br)ccc32)n1` [Example 48, (S)-1-[3-(5-Bromo-1H-indazole-1-yl)pyridine-2-yl]-2-(3-fluoro-6-methylsulfonylpyr-idine-2-yl)ethan-1-amine hydrochloride]: the figures for the IC50 on HCN4 [1] and against HCN2 [2] were 11.1 µM and 2.1 µM, respectively.

As for `Cc1ccc(C#N)nc1C[C@H](N)c1ncccc1-n1ncc2cc(Br)ccc21` [Example 36, hydrochloride], the values for the IC50 against HCN4 [1] and on HCN2 [2] were 4.7 µM and 0.77 µM, respectively.

With `Cc1ccc(C#N)nc1C[C@H](N)c1ncccc1-n1ncc2cc(F)ccc21` [Example 47], the IC50 worked out at 10 µM on HCN4 [1] and 0.63 µM against HCN2 [2].

Turning to `CS(=O)(=O)c1ccc(F)c(C[C@H](N)c2ncccc2-n2ncc3cc(Cl)ccc32)n1` [Example 41, (S)-1-[3-(5-Chloro-1H-indazole-1-yl)-pyridine-2-yl]-2-(3-fluoro-6-methylsulfon-ylpyridine-2-yl)ethan-1-amine hydrochloride], the figures for the IC50 on HCN4 [1] and against HCN2 [2] were more than 30 µM and 3.9 µM, respectively.

Regarding `N#Cc1ccc(F)c(C[C@H](N)c2ncccc2-n2ncc3cc(F)ccc32)n1` [Example 38, (S)-6-{2-Amino-2-[3-(5-fluoro-1H-indazol-1-yl)pyridine-2-yl]ethyl}-5-fluoropyridine-2-carbonitrile], the IC50 against HCN4 [1] was more than 30 µM; on HCN2 [2], 0.79 µM.

Consider `N#Cc1ccc(F)c(C[C@H](N)c2ncccc2-n2ncc3cc(Cl)ccc32)n1` [Example 45, (S)-6-{2-Amino-2-[3-(5-chloro-1H-indazol-1-yl)pyridine-2-yl-ethyl}-5-fluoropyr-idine-2-carbonitrile hydrochloride], for which the results for the IC50 against HCN4 [1] and on HCN2 [2] were 3.4 µM and 0.6 µM, respectively.
